Results published in ChEMBL document CHEMBL1201862, “PubChem BioAssay data set” (2004).
Activity calls are given as the source filed them.

Tests used:
[1] = Luminescence-based cell-based high throughput dose response assay to identify activators of the DAF-12 from the parasite S. stercoralis (ssDAF-12).; type: functional
[2] = molecular target: T1, Oxysterols receptor LXR-beta (Homo sapiens, UniProt P55055); assay: LXR agonists, Gal4 luciferase reporter, dose response, counter-screen for ssDAF-12 agonist project, cell-based, luminescence, HEK293, S. stercoralis campaign (AID 720737); type: functional; details: read-out: IC50 (the source's name)
T1 sequence (P55055 whole entry): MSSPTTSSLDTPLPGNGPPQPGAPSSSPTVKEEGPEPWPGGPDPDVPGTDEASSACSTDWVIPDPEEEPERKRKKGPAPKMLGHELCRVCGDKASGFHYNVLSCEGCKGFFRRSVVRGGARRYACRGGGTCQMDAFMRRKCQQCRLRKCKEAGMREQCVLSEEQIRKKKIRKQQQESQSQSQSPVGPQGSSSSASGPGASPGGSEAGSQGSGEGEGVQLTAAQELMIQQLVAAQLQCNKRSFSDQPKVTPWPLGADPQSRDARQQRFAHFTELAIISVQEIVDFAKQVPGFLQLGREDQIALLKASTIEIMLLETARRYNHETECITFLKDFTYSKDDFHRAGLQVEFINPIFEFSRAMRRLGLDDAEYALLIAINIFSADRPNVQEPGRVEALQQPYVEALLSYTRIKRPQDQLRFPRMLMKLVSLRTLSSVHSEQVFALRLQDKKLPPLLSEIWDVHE

[3] = molecular target: T1, Oxysterols receptor LXR-beta; type: functional, cell-based
Protein skinhead-1 = molecular target: T2, Protein skinhead-1 (Caenorhabditis elegans, UniProt P34707); type: functional
T2 sequence (P34707 whole entry): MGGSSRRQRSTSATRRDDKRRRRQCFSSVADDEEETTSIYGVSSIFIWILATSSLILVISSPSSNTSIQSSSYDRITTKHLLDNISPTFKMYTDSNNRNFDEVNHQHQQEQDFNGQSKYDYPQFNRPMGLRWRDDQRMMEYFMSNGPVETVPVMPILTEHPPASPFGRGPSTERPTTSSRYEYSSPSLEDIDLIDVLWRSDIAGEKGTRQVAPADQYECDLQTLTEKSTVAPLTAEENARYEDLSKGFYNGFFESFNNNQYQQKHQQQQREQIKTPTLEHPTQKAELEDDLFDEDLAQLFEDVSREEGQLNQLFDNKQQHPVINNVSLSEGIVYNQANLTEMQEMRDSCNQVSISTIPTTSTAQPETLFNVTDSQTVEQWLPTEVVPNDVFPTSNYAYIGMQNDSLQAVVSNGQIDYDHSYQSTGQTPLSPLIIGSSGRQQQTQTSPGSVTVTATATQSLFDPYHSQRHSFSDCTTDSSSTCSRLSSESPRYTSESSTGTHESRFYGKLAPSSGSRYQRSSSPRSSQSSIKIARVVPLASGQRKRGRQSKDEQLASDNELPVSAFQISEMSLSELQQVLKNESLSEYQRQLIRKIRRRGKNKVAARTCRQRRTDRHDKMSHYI

Vero = assay: viability of Vero cells under compound – cytotoxicity control for flavivirus capping enzyme inhibitors (AID 588742); type: functional; details: Chlorocebus sabaeus
Protein Tat = molecular target: T3, Protein Tat (Human immunodeficiency virus type 1 group M subtype B (isolate HXB2)(HIV-1), UniProt P04608); type: functional;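 further: tat binding to TAR RNA read out by fluorescence polarization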
T3 sequence (P04608 whole entry): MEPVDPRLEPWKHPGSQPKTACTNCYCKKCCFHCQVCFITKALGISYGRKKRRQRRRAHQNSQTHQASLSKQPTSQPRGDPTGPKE

[4] = viability loss in THP-1 monocytes – THP-1 cells, cytotoxicity control for Vif-APOBEC3G degradation inhibitor project, dose response (AID 1117359); type: functional; details: THP-1
Cytochrome P450 2D6 = Cytochrome P450 2D6 (Homo sapiens, UniProt P10635);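 further: CYP2D6 member of a cytochrome P450 panel assay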
Cytochrome P450 2D6, sequence (P10635 whole entry): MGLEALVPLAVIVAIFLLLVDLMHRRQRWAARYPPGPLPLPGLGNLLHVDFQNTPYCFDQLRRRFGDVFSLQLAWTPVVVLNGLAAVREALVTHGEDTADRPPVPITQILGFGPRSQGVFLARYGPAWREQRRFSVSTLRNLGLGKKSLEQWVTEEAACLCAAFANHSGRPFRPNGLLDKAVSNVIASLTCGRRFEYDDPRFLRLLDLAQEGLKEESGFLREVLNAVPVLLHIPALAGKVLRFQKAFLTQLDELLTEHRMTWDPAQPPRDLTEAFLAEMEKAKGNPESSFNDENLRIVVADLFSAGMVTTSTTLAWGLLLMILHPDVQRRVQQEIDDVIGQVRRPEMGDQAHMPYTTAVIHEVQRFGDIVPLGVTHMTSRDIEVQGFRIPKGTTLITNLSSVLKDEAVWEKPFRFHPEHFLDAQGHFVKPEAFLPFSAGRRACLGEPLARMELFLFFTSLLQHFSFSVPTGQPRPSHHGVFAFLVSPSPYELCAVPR

Cytochrome P450 2C9 = Cytochrome P450 2C9 (Homo sapiens, UniProt P11712)
Cytochrome P450 2C9, sequence (P11712 whole entry): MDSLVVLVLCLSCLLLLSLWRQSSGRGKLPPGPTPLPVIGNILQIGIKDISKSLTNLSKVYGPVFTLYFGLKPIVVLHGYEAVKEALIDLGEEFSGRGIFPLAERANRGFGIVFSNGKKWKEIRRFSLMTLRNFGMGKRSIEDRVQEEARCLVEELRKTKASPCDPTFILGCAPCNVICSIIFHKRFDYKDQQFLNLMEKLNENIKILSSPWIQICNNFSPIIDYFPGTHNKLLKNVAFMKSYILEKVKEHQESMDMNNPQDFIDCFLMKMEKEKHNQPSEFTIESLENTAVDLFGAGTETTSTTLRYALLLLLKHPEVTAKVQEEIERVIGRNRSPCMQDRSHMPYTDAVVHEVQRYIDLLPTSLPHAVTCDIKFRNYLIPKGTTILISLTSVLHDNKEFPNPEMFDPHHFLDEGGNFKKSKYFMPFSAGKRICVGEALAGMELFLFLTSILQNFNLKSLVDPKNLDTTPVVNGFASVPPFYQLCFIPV

With `Fc1ccc(-c2nc3n(n2)Cc2ccccc2-3)cc1` the IC50 [1] was > 67.6 µM (inactive), the EC50 [2] was > 67.6 µM (inactive) and the EC50 [3] was > 67.6 µM (inactive). The EC50 (cells) was > 67.6 µM (inactive).

For `O=C(/C=C/c1cccs1)N1CCc2ccccc21`, the IC50 (Protein skinhead-1) was > 100 µM (inactive), the IC50 [1] was > 67.5 µM (inactive) and the EC50 [2] was > 67.5 µM (inactive). The EC50 [3] was > 67.5 µM (inactive) and the EC50 (cells) was > 67.5 µM (inactive).

For `O=C(O)c1cccc(N2C(=O)c3ccc(C(=O)c4cccc([N+](=O)[O-])c4)cc3C2=O)c1`, the IC50 [1] was > 67.5 µM (inactive) and the EC50 [2] was > 67.5 µM (inactive).

With `CN=c1ccc(Br)cc(C(=O)/C=C/c2ccc3c(c2)OCO3)c1O` the CC50 (Vero) was > 40 µM (active), the IC50 (Protein Tat) was 40.7 µM (inconclusive) and the CC50 [4] was > 40 µM (active). The AC50 (Cytochrome P450 2D6) was 10 µM (inconclusive) and the AC50 (Cytochrome P450 2C9) was “inconclusive”.
